Test results published in US20040014676A1, “SRC kinase inhibitors useful for treating osteoporosis” (priority 2001, published 2004).

Target: T1, Src kinase (Homo sapiens, UniProt P12931)
T1 construct: purchased Upstate Bioteolnology (sic; Upstate Biotechnology); later HMR stock 27597-019E1 #14-117
Assay: Phosphorylation assay of Src kinase inhibitors (radiometric, 96 well filter plate)
Format: biochemical
Details: duplicates, tested in the range of 400-0.098 µM; 10 µM peptide substrate (FIYGAFKKKKNH2), 5 µM unlabeled ATP, room temperature 30 min; read-out: IC50
Experimental: The present invention provides novel compounds of Formulae I through XVIII discussed above. The following compounds which fall within Formulae I through XVIII are characterized by structure, IUPAC name and activity using phosphorylation assay for protein tyrosine Src kinase.
Phosphorylation Assay of Src Kinase Inhibitors
The activity of Src kinase was measured in a 96 well plate phosphorylation assay where the transfer of gamma phosphate from ATP to peptide substrate was measured radiometrically. […] Ki values were determined experimentally for some of the inhibitors. The phosphocellulose filter plates (Millipore catalog #MAPH NOB) were prewet prior to the phosphorylation assay by addition of 100 1 per well of 30 mM MES buffer+0.4 mg/ml BSA. After a 20-minute incubation, the buffer was removed completely via a Millipore vacuum manifold. The phosphorylation assay was then set up in the filter plates in a total volume per well of 60 1. The 60 1 consisted of compound (see concentration ranges above), a 1:100 dilution of Src kinase (originally Upstate Bioteolnology, #14-117; later HMR stock 27597-019E1) or assay buffer alone (for no enzyme control wells), 10 M peptide substrate (FIYGAFKKKKNH2), 5 M unlabeled ATP and a 1:500 dilution of P-ATP (New England Nuclear, catalog #NEG-602H, 2000 Ci/mmol). The reaction was mixed and incubated at room temperature for 30 min. The kinase reactions were stopped by addition of 150 mM H3PO4 and incubated for 10 minutes. The filter plate wells were filtered and washed seven times with 200 1 per well of 150 mM H3PO4. Finally, the filter plate was placed into a Packard plate adapter (Packard catalog #600517B), 35 1 of Microscint-20 (Packard catalog #6013621) was added to each well, the plate was sealed (TopSeal A sealers; Packard catalog #6005185) and counted on a Packard TopCount.

Molecule | IC50
3-[4-[[2(S)-AMINO-3-(4-HYDROXY- PHENYL)-1-OXOPROPYL]AMINO]- ETHOXY]-2-[N-ACETAMIDO]- NAPHTHALENECARBOXAMIDE [Example 23] | 3.4 µM
3-[[4-[[1-OXO-2(S)-AMINO-3-(4- HYDROXYPHENYL)]PROPYL]AMINO]BUTOXY]-7-METHOXY- NAPHTHALENE-2-[N-[[(3-HYDROXY- PROPYLAMINO)-CARBONYL]- METHYL]]CARBOXAMIDE [Example 118] | 47 µM
3-[[[2(S)-AMINO-3-(4-HYDROXY- PHENYL)-1-OXO]PROPYL]AMINO]- BUTOXY]NAPHTHALENE-2-[N- [(AMIDO)[2-(INDOL-3-YL)METHYL]- METHYL]CARBOXAMIDE [Example 29] | 60 µM
3-[[[4-[[[1-OXO-2(S)-AMINO-3- HYDROXYPHENYL)]PROPYL]AMINO]- BUTYL]CARBONYL]AMINO]- NAPHTHALENE-2-ACETAMIDO)- CARBOXAMIDE [Example 91] | 209 µM
Cc1nc(-c2ccc(CC(N)C(=O)NCCCCOc3cc4ccccc4cc3C(=O)NCC(N)=O)cc2)no1 (stereo in doubt) [Compound 135, (2S)-2-amino-N-(4-{3-[N-(carbamoylmethyl)carbamoyl](2-naphtyloxy)}butyl)-3-[4-(5-methyl(1,2,4-oxadizol-3-yl))phenyl]propanamide] | 29 µM
NC(=O)CNC(=O)c1cc(-c2ccccc2)ccc1OCCCCNC(=O)C(N)Cc1ccc(O)cc1 (stereo in doubt) [Compound 144, (2S)-2-amino-N-(4-{2-[N-(carbamoylmethyl)carbamoyl]-4-phenylphenoxy}butyl)-3-(4-hydroxyphenyl)propanamide] | 30 µM
NC(=O)CNC(=O)c1cc2ccccc2cc1OCCCCN1CCNC(Cc2ccccc2)C1=O (stereo in doubt) [Example 28, 3-[4-[(2-OXO-3(S)-BENZYL)-PIPERAZIN- 1-YL]BUTOXY]-NAPHTHALENE-2-(N- ACETAMIDO)CARBOXAMIDE] | 27 µM
NC(=O)CNC(=O)c1cc2ccccc2cc1OCCCCN1CCNC(Cc2ccccc2)C1=O (stereo in doubt) [Example 30, 3-[4-[(2-OXO-3-(R)-BENZYL)- PIPERAZIN-1-YL]BUTOXY]- NAPHTHALENE-2-(N- ACETAMIDO)CARBOXAMIDE] | 8.8 µM
C[C@@H](NC(=O)c1cc2ccccc2cc1OCCCCNC(=O)[C@H](N)Cc1ccc(O)cc1)C(N)=O (stereo in doubt) [Example 122, 2-[[4-[[1-OXO-2-AMINO-3-(4-HYDROXY- PHENYL)]PROPYL]AMINO] BUTOXY]- NAPHTHALENE-3-[N-[1(S)-METHYL-2- OXO-2-AMINO)ETHYL]ACETAMIDO]- CARBOXAMIDE] | 12 µM
NC(=O)CNC(=O)c1cc2ccccc2cc1NCCCCNC(=O)[C@H](N)Cc1ccc(O)cc1 (stereo in doubt) [Example 123] | 25 µM
CNC(=O)C(Cc1ccc(-c2noc(C)n2)cc1)C(=O)NCCCCOc1cc2ccccc2cc1C(=O)NCC(N)=O (centres unmarked) [Compound 134, N-(4-{3-[N-(carbamoylmethyl)carbamoyl](2-naphthyloxy)}butyl)-N′-methyl-2-{[4-(5-methyl(1,2,4-oxadiazol-3-yl))phenyl]methyl}propane-1,3-diamide] | 76 µM
NC(=O)CNC(=O)c1c(Cl)c(Cl)cc(Cl)c1OCCCCNC(=O)[C@@H](N)Cc1ccc(O)cc1 [Compound 136, (2S)-2-amino-N-(4-{2-[N-(carbamoylmethyl)carbamoyl]-3,4,6-trichlorophenoxy)butyl)-3-(4-hydroxyphenyl)propanamide] | 200 µM
NC(=O)CC(=O)Nc1cc2ccccc2cc1OCCCCNC(=O)[C@@H](N)Cc1ccc(O)cc1 [Compound 151, (2S)-2-amino-N-{4-[3-(2-carbamoylacetylamino)(2-naphthyloxy)]butyl}-3-(4-hydroxyphenyl)propanamide] | 5 µM
NC(=O)CC(=O)Nc1cc2ccccc2cc1OCCCCNC(=O)[C@@H](N)Cc1csc2ccccc12 [Compound 152, (2S)-2-amino-3-benzo[b]thiophen-3-yl-N-{4-[3-(2-carbamoylacetylamino)(2-naphthyloxy)]butyl}propanamide] | 1 µM
NC(=O)CNC(=O)c1cc2ccccc2cc1OCCCCNC(=O)[C@@H](N)CC1=CS(=O)(=O)c2ccccc21 [Compound 155, (2S)-2-amino-3-(1,1-dioxobenzo[b]thiophen-3-yl)-N-(4-{3-[N-(carbamoylmethyl)carbamoyl](2-naphthyloxy)}butyl)propanamide] | 5 µM
NC(=O)Cc1nc(-c2cc3ccccc3cc2OCCCCNC(=O)[C@@H](N)Cc2csc3ccccc23)no1 [Compound 156, (2S)-2-amino-3-benzo[b]thiophen-3-yl-N-(4-{3-[5-(carbamoylmethyl)(1,2,4-oxadiazol-3-yl)](2-naphthyloxy)}butyl)propanamide] | 20 µM
N[C@@H](Cc1ccc(O)cc1)C(=O)NCCCCOc1c(O)cc(C(=O)NCC(=O)CCCO)cc1O [Example 3, ALPHA(S)-AMINO-N-[4-[2,6-DI- HYDROXY-4-[[(5-HYDROXY-2-OXO- PENTYL)AMINO]CARBONYL]- PHENOXY] BUTYL]-4- HYDROXYBENZENEPROPANAMIDE] | ≥ 500 µM
NC(=O)CNC(=O)c1cc2ccccc2cc1OCCCCNC(=O)[C@@H](N)Cc1ccc(O)cc1 [Example 5, 3-[4-[[2(S)-AMINO-3-(4-HYDROXY- PHENYL)-1-OXOPROPYL]AMINO]- BUTOXY]-2-[N-ACETAMIDO]- NAPHTHALENECARBOXAMIDE] | 0.47 µM
NC(=O)c1cc2ccccc2cc1OCCCCNC(=O)[C@@H](N)Cc1ccc(O)cc1 [Example 6, 3-[4-[[2(S)-AMINO-3-(4-HYDROXY- PHENYL)-1-OXOPROPYL]AMINO]- BUTOXY]-NAPHTHALENE-2- CARBOXAMIDE] | 47 µM
N[C@@H](Cc1ccc(O)cc1)C(=O)NCCCOc1cc2ccccc2cc1C(=O)NCC(=O)NCCCO [Example 7, 3-[3-[[2(S)-AMINO-3-(4-HYDROXY- PHENYL)-1-OXOPROPYL]AMINO]- PROPOXY]-N-[2-[(3-HYDROXY- PROPYL)AMINO]-2-OXOETHYL]-2- NAPHTHALENECARBOXAMIDE] | 45 µM
NCCCCC(NC(=O)c1cc2ccccc2cc1OCCCCNC(=O)[C@@H](N)Cc1ccc(O)cc1)C(N)=O (stereo partly drawn) [Example 8, 3-[4-[[2(S)-AMINO-3-(4-HYDROXY- PHENYL)-1-OXOPROPYL]AMINO]- BUTOXY]-NAPHTHALENE-2-[N-[[(4- AMINOBUTYL)(AMIDO)]METHYL]- ACETAMIDO]CARBOXAMIDE] | 348 µM
CC(NC(=O)c1cc2ccccc2cc1OCCCCNC(=O)[C@@H](N)Cc1ccc(O)cc1)C(N)=O (stereo partly drawn) [Example 9, 3-[4-[[2(S)-AMINO-3-(4-HYDROXY- PHENYL)-1-OXOPROPYL]AMINO]- BUTOXY]-NAPHTHALENE-2-N-[(1- AMIDO)ETHYL]CARBOXAMIDE] | 25 µM
NC(=O)C(Cc1ccccc1)NC(=O)c1cc2ccccc2cc1OCCCCNC(=O)[C@@H](N)Cc1ccc(O)cc1 (stereo partly drawn) [Example 10, 3-[4-[[2(S)-AMINO-3-(4-HYDROXY- PHENYL)-1-OXOPROPYL]AMINO]- BUTOXY]-NAPHTHALENE-2-[N- [(AMIDO)(BENZYL)METHYL]]- CARBOXAMIDE] | ≥ 500 µM
N=C(N)NCCCC(NC(=O)c1cc2ccccc2cc1OCCCCNC(=O)[C@@H](N)Cc1ccc(O)cc1)C(N)=O (stereo partly drawn) [Example 11, 3-[4-[[2(S)-AMINO-3-(4-HYDROXY- PHENYL)-1-OXOPROPYL]AMINO]- BUTOXY]-NAPHTHALENE-2-[N- [[AMIDO][(3-AMINOIMINOMETHYL)- PROPYLAMINO]METHYL]]- CARBOXAMIDE] | 113 µM
NC(=O)C(CCC(=O)O)NC(=O)c1cc2ccccc2cc1OCCCCNC(=O)[C@@H](N)Cc1ccc(O)cc1 (stereo partly drawn) [Example 12, 3-[4-[[2(S)-AMINO-3-(4-HYDROXY- PHENYL)-1-OXOPROPYL]AMINO]- BUTOXY]-NAPHTHALENE-2-[N- [(AMIDO)(2-CARBOXYEHTYL)- METHYL]]CARBOXAMIDE] | 308 µM
NC(=O)CNC(=O)c1cc2ccccc2cc1OCCCCNC(=O)[C@@H](N)Cc1ccc2ccccc2c1 [Example 13, 3-[4-[[2(S)-AMINO-3-(NAPTHYL-2-YL)-1- OXOPROPYL]AMINO]BUTOXY]- NAPHTHALENE-2-[N-(2- AMIDOMETHYL)]CARBOXAMIDE] | 0.45 µM
NC(=O)CNC(=O)c1cc2ccccc2cc1OCCCCNC(=O)[C@@H](N)Cc1ccccc1 [Example 14, 3-[4-[[2(S)-AMINO-3-(PHENYL)-1- OXOPROPYL]AMINO]BUTOXY]- NAPHTHALENE-2-[N-(2- AMIDOMETHYL)]CARBOXAMIDE] | 0.98 µM
CC(C)C[C@H](N)C(=O)NCCCCOc1cc2ccccc2cc1C(=O)NCC(N)=O [Example 15, 3-[4-[[2(S)-AMINO-3-(ISOPROPYL)-1- OXOPROPYL]AMINO]BUTOXY]- NAPHTHALENE-2-[N-(2- AMIDOMETHYL)]CARBOXAMIDE] | 4.8 µM
NC(=O)CNC(=O)c1cc2ccccc2cc1OCCCCNC(=O)[C@H](Cc1ccc(O)cc1)NC(=O)c1ccccc1 [Example 17, 3-[4-[[2(S)-(N-BENZOYLAMINO)-3-(4- HYDROXYPHENYL)-1-OXOPROPYL]- AMINO]BUTOXY]-NAPHTHALENE-2- [N-(2-AMIDOMETHYL)]CARBOXAMIDE] | 23 µM
